Read-outs that look alike come from different tables or passages of the source.
How the values were obtained:
[1] = test system: BCMA+ MOLP-8-luciferase tumors; assay: MOLP-8-luciferase intravenous xenogenic tumor model, BLI (Example 14); format: in vivo, mouse; details: 4 mg/kg on days 0, 3 and 7
Description: To determine the in vivo efficacy of anti-BCMA×anti-CD3 bispecific antibodies (Abs), a xenogenic tumor study was performed. On day −11, immunodeficient NOD.Cg-Prkdc^scidIl2rg^tm1Wji/SzJ (NSG) mice were intraperitoneally injected with 4×10^6 human peripheral blood mononuclear cells (PBMC) from a normal, healthy donor. On day 0, the mice were intravenously administered 2×10^6 BCMA^+ MOLP-8 human multiple myeloma tumor cells that were engineered to also express firefly luciferase (MOLP-8-luciferase cells). […] The mice were administered these Abs twice more on days 3 and 7, for a total of three doses. Tumor growth was assessed over 48 days by measuring tumor bioluminescence (BLI) in anesthetized animals. As a positive control, a group of mice (n=5) was given only MOLP-8-luciferase cells, but not PBMC or antibody.
Implantation and measurement of xenogenic tumors: On day −11, immunodeficient NOD.Cg-Prkdc^scidIl2rg^tm1Wji/SzJ (NSG) mice were intraperitoneally injected with 5×10^6 human PBMC from a normal, healthy donor. […] Tumor growth was assessed over 48 days by measuring tumor BLI in anesthetized animals. […]
Measurement of xenogenic tumor growth: BLI imaging was used to measure tumor burden. […] Image acquisition was carried out with the field of view at D, subject height of 1.5 cm, and medium binning level with automatic exposure time determined by the Living Image Software. […]

[2] = test system: primary human plasma cells (CD138+); assay: Autologous T cell-mediated killing of human plasma cells; format: cell-based
Description: The specific killing of enriched CD138^+ human or cynomolgus monkey plasma cells by unstimulated autologous T cells was assessed by flow cytometry. Human or cynomolgus bone marrow aspirates and blood were provided within 24 hours of harvest. CD138^+ plasma cells were enriched from bone marrow by positive selection using the EasySep™ Human CD138^+ Positive Selection kit according to the manufacturer's instructions. PBMC from whole blood were isolated by density separation. PBMC were labeled with 1 μM of Vybrant™ CFDA-SE fluorescent tracking dye. […] At the end of the culture, surviving CD138^+ plasma cells were analyzed by flow cytometry, utilizing fixable LIVE/DEAD dye and plasma cell specific cell surface markers. Percent viability was normalized to control condition (plasma cells in the presence of PBMC only). T cell activation was assessed by flow cytometry. Activation is reported as the percentage of CD2^+/CD4^+ or CD2^+/CD8^+/CD16^− T cells expressing CD25. Percent T cell activation was normalized to control condition (plasma cells in the presence of PBMC only).

[3] = test system: MC38/BCMA tumors; assay: Syngenic MC38/BCMA tumor model, combination with anti-PD-1 (Example 20); format: in vivo; details: REGN5458 0.04 or 0.24 mg/kg plus anti-mouse PD-1 (Clone RPM1-14) 4 mg/kg
Description: Implantation and measurement of syngenic tumors: C57BL/6 mice that express human CD3deg in place of murine CD3deg (CD3-humanized mice) were subcutaneously implanted with 1×10^6 MC38 colon carcinoma cells that have been engineered to express full-length human BCMA (MC38/BCMA).
The mice were administered these Abs twice more on days 7 and 11 for a total of three doses, and tumor growth was assessed throughout the experiment.
Calculation of syngenic tumor growth and inhibition: In order to determine tumor volume by external caliper, the greatest longitudinal diameter (length in mm) and the greatest transverse diameter (width in mm) were determined. Tumor volumes based on caliper measurements were calculated by the formula: Volume (mm^3)=(length×width^2)/2.

[4] = test system: monkey BCMA-MFC; assay: SPR (Biacore 4000) binding kinetics to monkey BCMA-MFC; details: 25° C.
Description: The CM5 Biacore sensor surface was derivatized by amine coupling with a monoclonal mouse anti-human Fc antibody (GE, #BR-11008-39) to capture purified anti-BCMA mAbs and anti-BCMA×anti-CD3 bispecific mAbs. All Biacore binding studies were performed in a buffer composed of 0.01 M HEPES pH 7.4, 0.15M NaCl, 3 mM EDTA, 0.05% v/v Surfactant P20 (HBS-ET running buffer). […] Antigen samples were then injected over the anti-BCMA and anti-BCMA×anti-CD3 bispecific mAbs captured surfaces at a flow rate of 30 μL/minute. Antibody-reagent association was monitored for 5 minutes while dissociation in HBS-ET running buffer was monitored for 10 minutes. All of the binding kinetics experiments were performed at 25° C. Kinetic association (ka) and dissociation (kd) rate constants were determined by fitting the real-time sensorgrams to a 1:1 binding model using Scrubber 2.0c curve fitting software. Binding dissociation equilibrium constants (KD) and dissociative half-lives (t½) were calculated from the kinetic rate constants as: […]

monkey BCMA-MFC, sequence (as listed by the source): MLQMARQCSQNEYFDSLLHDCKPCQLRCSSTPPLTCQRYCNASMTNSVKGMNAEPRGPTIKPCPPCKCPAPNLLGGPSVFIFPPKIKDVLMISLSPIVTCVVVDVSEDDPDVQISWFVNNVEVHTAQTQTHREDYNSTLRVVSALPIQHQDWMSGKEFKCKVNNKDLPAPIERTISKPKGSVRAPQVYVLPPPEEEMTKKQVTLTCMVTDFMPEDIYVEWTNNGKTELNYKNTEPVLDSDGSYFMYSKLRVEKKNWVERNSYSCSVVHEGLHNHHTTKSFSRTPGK

| Substance | tumor growth (in words) [1] | Cytotoxic Kill Max % Cytotoxicity ([2]; Human Donor 1 plasma cells, autologous primary human T cells, E:T 10:1, 72 hours) [%] | EC50 ([2]; Human Donor 1 plasma cells, autologous primary human T cells, read-out: T Cell Activation (% CD25 Upregulation) CD8+ T cells EC50) [nM] | Cytotoxic Kill Max % Cytotoxicity ([2]; Human Donor 2 plasma cells, autologous primary human T cells, E:T 10:1, 72 hours) [%] | EC50 ([2]; Human Donor 2 plasma cells, autologous primary human T cells, E:T 10:1, 72 hours, read-out: Cytotoxic Kill EC50) [nM] | T Cell Activation (% CD25 Upregulation) CD8+ T cells % Activation ([2]; Human Donor 2 plasma cells, autologous primary human T cells, maximum) [%] | maximum percent cytotoxicity ([2]; human donor 1) [%] | EC50 ([2]; human donor 1, CD25, read-out: CD8+ T cell activation EC50) [nM] | EC50 ([2]; human donor 1, read-out: cytotoxicity EC50) [nM] | maximum percent CD8+ T cell activation ([2]; human donor 2) [%] | maximum percent cytotoxicity ([2]; human donor 2) [%] | EC50 ([2]; human donor 2, CD25, read-out: CD8+ T cell activation EC50) [nM] | EC50 ([2]; human donor 2, read-out: cytotoxicity EC50) [nM] | anti-tumor efficacy of the combination (in words) [3] | ka [4] [M⁻¹ s⁻¹] | kd [4] [s⁻¹] |
| --- | --- | --- | --- | --- | --- | --- | --- | --- | --- | --- | --- | --- | --- | --- | --- | --- |
| REGN5458: anti-BCMA×anti-CD3 bispecific antibody: BCMA HCVR of mAb21581 (SEQ 66), CD3 HCVR of mAb7221G (SEQ 90), common LCVR SEQ 82 | delayed the growth | 91 | 0.214 | 89 | 0.191 | 36 | 91 | 0.214 | 0.0428 | 36 | 89 | 0.86 | 0.191 | superior anti-tumor efficacy |  |  |
| REGN5459: anti-BCMA×anti-CD3 bispecific antibody: BCMA HCVR of mAb21581 (SEQ 66), CD3 HCVR of mAb7221G20 (SEQ 98), common LCVR SEQ 82 |  |  |  |  |  |  |  |  |  |  |  |  |  |  | 482000 | 7.15e-05 |

Source: patent publication US20260008862A1, “Bispecific Anti-BCMA x Anti-CD3 Antibodies and Uses Thereof” (Regeneron Pharmaceuticals, Inc., priority 2018, published 2026)
